Literature values in patent US20200306292A1, “METHOD FOR TREATING ACUTE HYPOVOLEMIA” (Wonder Spray, LLC, priority 2019, published 2020).

Experiments:
E. coli [1] = settings: (2.6 ppm) HOCl, within 5 minutes
f2 RNA = settings: naked f2 RNA compared with RNA in intact phage
[2] = inhalation
E. coli [3] = settings: 50 mM (2.6 ppm) HOCl, within 5 minutes

OCl [HOCl, hypochlorous acid]
growth of E. coli (E. coli [1]): completely inhibited
inactivation of naked f2 RNA (f2 RNA): inactivated naked f2 RNA at the same rate as RNA in intact phage
adverse effects on inhaling the aerosolized form [2]: no adverse effects
inhibiting the DNA synthesis (E. coli [3]): ninety-six
